From patent US8278303B2, “Phosphine transition metal complex, process for producing same, and anticancer agent” (Nippon Chemical Industrial Co., Ltd., priority 2006, dated 2012)
pIC50: −log10 of the molar value.

Test system: Human acute myelocytic leukemia cells HL-60
Assay: Inhibitory activity on tumor cells, viable cell count by modified Mosmann (MTT) method
Format: cell-based
Conditions: HL-60 cells, 50,000 cells/well, 24 hours culture with compound, then MTT 3 hours; average of at least triplicate; read-out: IC50 (fifty percent inhibitory concentration)
Procedure: The cells were washed with PBS.
Formazan crystals formed by the enzyme activity of mitochondria in the cells were dissolved in 0.04 mol/HCl/isopropyl alcohol.

SMILES: CP(c1nc2ccccc2nc1P(C)C(C)(C)C)C(C)(C)C.CP(c1nc2ccccc2nc1P(C)C(C)(C)C)C(C)(C)C.[Au+].[Cl-] (stereo not shown) [Example 1, bis(2,3-bis(t-butylmethylphosphino)quinoxaline)gold (I) chloride]
- pIC50: 6.29
